In patent US9487749B2 (priority 2009, dated 2016):
Read-outs that look alike come from different tables or passages of the source.

Columns and labels:
[1] = system: Streptococcus Pyogenes (Lancefield group A); settings: 18 h
Streptococcus Pneumonia = settings: Streptococcus pneumoniae, 7 h

Structure (SMILES): C[S+](C)[O-] [DMSO, Dimethyl sulfoxide]
- S. pyogenes viability (%) ([1]; 5 %): 96.66%
- Viability of S. pyogenes (%) ([1]; 5 %): 96.66%
- S. pyogenes viability (%) ([1]; 8 %): 9.96%
- Viability of S. pyogenes (%) ([1]; 10 %): 14.50%
- Viability of S. pyogenes (%) ([1]; 20 %): 5.14%
- Viability of S. pneumonia (Streptococcus Pneumonia; 5 %): 75.45%
- Viability of S. pneumonia (Streptococcus Pneumonia; 10 %): 40.18%
